Results: patent publication EP0503537B1, “6,9 Bis(substituted-amino)benzo-[g]isoquinoline-5,10-diones” (THE UNIVERSITY OF VERMONT, priority 1991, dated 1992)
In brackets after ≈: the same amount, converted by molar mass. Several values for one entry are separate records, joined by “and”; a condition that tells them apart may be missing. Equal entries are not always repeated. Structures can show the parent of a compound that is named as a salt. Marks after values point to notes of the source that are not given here.

Columns and labels:
[1] = test system: human colon adenocarcinoma cell line (Lovo); assay: MTT cytotoxicity assay on human colon adenocarcinoma Lovo cells; format: cell-based; conditions: 144 h, read-out: IC50 µg/ml±S.D. LoVo
Procedure: (§1) The evaluation of the "in vitro" cytotoxic activity of the compounds of the invention was performed using a human colon adenocarcinoma cell line (Lovo) isolated from a metastatic nodule and a subline with aquired resistance to a number of antitumor agents, among which doxorubicin, VP-16 and vincristine. […] The compounds were tested according to the MTT assay (Mosman, T., "Rapid Colorimetric assay for cellular growth and survival: application to proliferation and cytotoxicity assay", J. Immunol. Methods, (1983), 65, 55-63; Green, L.M., "Rapid colorimetric assay for cell viability; application to the quantitation of cytotoxic and growth inhibitory lymphokines", J. Immunol. Methods, (1984), 70, 257-268) in comparison with mitoxantrone, ametantrone and doxorubicin.
(§2) In vitro biological evaluation: MTT assay on human colon adenocarcinoma Lovo cells.
(§3) The MTT assay was performed according to Mosmann, T., J. Immunol. Methods, (1983), 65, 55-63 and Green, L. M., J. Immunol. Methods, (1984), 70, 257-268.
(§4) Immediately before use, compounds and reference standards are dissolved in proper solvent and subsequently further diluted in complete culture medium. Human colon adenocarcinoma cells Lovo and the subline resistant to doxorubicin (Lovo/DX) (2.5. 10^4 cells/ml) are plated in 96-well plates and preincubated for 24 hours in culture medium. After this time, the cells are exposed to drugs for 144 hours, then the thiazolyl blue tetrazolium bromide solution (MTT solution) is added and the cells are reincubated for 4 hours. The supernatant is removed and 150 µl of dimethylsulfoxide are added to solubilize formazan crystals. The plate is read at 570 nm with microplate reader and the inhibiting concentration of 50% cellular growth (IC50; µg/ml) is calculated.

Lovo/DX = assay: MTT cytotoxicity assay on doxorubicin-resistant subline Lovo/DX; format: cell-based, human
Procedure: as §1, §2, §3, §4

[2] = test system: L1210 Murine leukemia cells; assay: In vitro growth inhibition of L1210 murine leukemia cells (Coulter Counter); format: cell-based; conditions: Mus musculus, 72 hours of continuous exposure
Procedure: The "in vitro" cytotoxic evaluation was also performed on L 1210 murine leukemia cells using the above mentioned cells maintained in suspension cultures (McCoy's 5A medium supplemented with 10% horse serum, glutamine, penicillin and streptomycin) grown in an humidified environment of 10% carbon dioxide and 90% air at 37°C. The compounds were dissolved in dimethylsulfoxide (DMSO) and added to the suspended cells in appropriate concentrations. After 72 hours of continuous exposure, the cell concentration was counted using a Coulter Counter and growth inhibition calculated using the formula: % growth inhibition = 1 - [cell number treated/cell number DMSO alone] x 100. [formula]
The IC50 was calculated from the growth inhibition data and they are reported in table VII in comparison to the prior art compound 5a (see table I for structure of 5a).
L1210 Murine leukemia cells were routinely maintained in suspension cultures in McCoy's 5A medium supplemented with 10% horse serum glutamine, penicillin and streptomycin and grown in a humidified environment of 10% carbon dioxide and 90% air at 37°C.
To assess the in vitro toxicity, each compound was dissolved in dimethylsulfoxide and added to 1 ml of L1210 cells (10^5 cells/tube) to attain final concentrations of 0.01, 0.1 and 1 µg of drug/ml of culture. After 72 hours of continues exposure to the drug, the cell concentration was determined with a Coulter Counter. Growth inhibition was calculated for each drug using the following formula: % growth inhibition = 1-[cell number treated/cell number DMSO alone] x 100. [formula]
The growth inhibition data was then used to calculate the IC50 value (the calculated drug concentration required to inhibit cell growth by 50% of control.

P388 Murine Leukemia [3] = assay: In vivo P388 murine leukemia (iv/iv, d 1, 4, 7); conditions: for T/C% (range): median survival time; for LTS: tumor free at 60 days
Procedure: P388 Murine Leukemia cells were maintained in vivo by serial intraperitoneal (i.p.) injections of 10^6 cells in DBA2 mice. For test purposes, CDF1 mice were inoculated intravenously (i.v.) with 10^6 P388 cells and treatment was initiated 24 hr later. The i.v. dose of drug was administered on days 1, 4 and 7. Mice were observed daily for signs of toxicity and survival. The date of death was recorded for each animal that died or was sacrificed during the 60 day study. The median survival time (MST) for each treatment group was calculated and the % T/C was determined using the following formula: % T/C = [(MST treated)/(MST control)] x 100 [formula]

L1210 murine leukemia [4] = assay: In vivo L1210 murine leukemia (ip/ip, d 1, 5, 9), protocol a, 10^6 cells; design: species or system BDF1 mice; conditions: days 1, 5 and 9, ip; for %T/C: mean survival time; for LTS: tumor-free at 60 days
Procedure: (§5) L 1210 leukemia cells were intraperitoneally (ip) injected in CDFl mice and treatment was initiated approximately 24 hours after tumor transplantation. Dosages of the drugs were administered ip according to preestablished protocols, usually at 4-day intervals. The studies were done over a 60-day period and the date of death for each animal was recorded. The % T/C was determined using the mean survival time (MST) for each group according to the formula % T/C = [(MST treated)/(MST control)] x 100 [formula]
(§6) • a) L1210 murine leukemia cells were maintained in vivo by weekly intraperitoneal (ip) injections of 10^6 cells in BDF1 mice. For test purposes, mice were inoculated i.p. with 10^6 L1210 cells and treatment was initiated 24 hours later. The desired dose of drug was administered on days 1, 5 and 9. Mice were observed daily for signs of toxicity and survival. The date of death was recorded for each animal that died or was sacrificed during the 60-day study. The mean survival time (MST) for each treatment group was calculated and the % T/C was determined using the following formula: % T/C = [(MST treated)/(MST control)] x 100 [formula] The results are reported in table X • b) L1210 murine leukemia cells were maintained in vivo by weekly intraperitoneal (ip) injections of 10^5 cells in DBA2 mice. For test purposes, CDF1 mice were inoculated i.p. with 10^5 L1210 cells and treatment was initiated 24 hours later. The desired dose of drug was administered on days 1, 5 and 9. Mice were observed daily for signs of toxicity and survival. The date of death was recorded for each animal that died or was sacrificed during the 60-day study. The median survival time (MST) for each treatment group was calculated and the % T/C was determined using the following formula: % T/C = [(MST treated)/(MST control)] x 100 [formula]

murine L 1210 leukemia [5] = conditions: in vitro, from J. Med. Chem. (1985), 28, 1124-1126; cited from earlier work
murine L 1210 leukemia [6] = conditions: in vivo, Dose 50 mg/kg; cited from earlier work
P388 Murine Leukemia [7] = assay: In vivo ascitic P388 murine leukemia (ip/ip, d 1, 5, 9); design: species or system CDF1 mice; conditions: for % T/C (range): median survival time; for TOX: toxic deaths/total No. of mice
Procedure: Treatment was initiated approximately 24 hours after tumor transplantation and dosages of the drug were administered ip (P388 ip/ip) or iv (P388 iv/iv) according to preestablished protocols, usually at 3-day (P388 iv/iv) or 4-day (P388 ip/ip) intervals. The studies were done over a 60-day period and the date of death for each animal was recorded. The % T/C was determined using the mean survival time (MST) for each group according to the formula % T/C = [(MST treated)/(MST control)] x 100 [formula]
P388 Murine Leukemia cells were maintained in vivo by serial intraperitoneal (ip) injections of 10^6 cells in DBA2 mice. For test purposes, CDF1 mice were inoculated i.p. with 10^6 P388 cells and treatment was initiated 24 hours later. The i.p dose of drug was administered on days 1, 5 and 9. Mice were observed daily for signs of toxicity and survival. The date of death was recorded for each animal that died or was sacrificed during the 60-day study. The median survival time (MST) for each treatment group was calculated and the % T/C was determined using the following formula: % T/C = [(MST treated)/(MST control)] x 100 [formula]

L1210 murine leukemia [8] = assay: In vivo ascitic L1210 murine leukemia (ip/ip, d 1, 5, 9), protocol b, 10^5 cells; design: species or system CDF1 mice; conditions: for %T/C: median survival time; for TOX: toxic deaths/total No. of mice; for LTS: tumor free at 60 days
Procedure: as §5, with “Dosages” for “L 1210 leukemia cells were intraperitoneally (ip) injected in CDFl mice and treatment was initiated approximately 24 hours after tumor transplantation. Dosages”
as §6, with “The mean survival time (MST) for each treatment group was calculated and the % T/C was determined using the following formula: % T/C = [(MST treated)/(MST control)] x 100 [formula] The results are reported in table X • b) L1210 murine leukemia cells were maintained in vivo by weekly intraperitoneal (ip) injections of 10^5 cells in DBA2 mice.” left out

**Q.** What does the source list for `CN(C)CCNc1ccc(NCCN(C)C)c2c1C(=O)c1ccncc1C2=O` [Compound 10a, 6,9-Bis{[2-(dimethylamino)ethyl]amino}benzo[g]isoquinoline-5,10-dione]?
**A.** IC50 [1]: 0.045 mg/L (≈ 0.118 µM); IC50 (Lovo/DX; Homo sapiens, LoVo/DX, MTT assay, 144 hrs drug exposure, read-out: IC50 µg/ml±S.D. LoVo/Dx): 0.085 mg/L (≈ 0.223 µM); R.I. (Lovo/DX; R.I. = (IC50 LoVo/Dx)/(IC50 LoVo)): 1.9; cross resistance with mitoxantrone and ametantrone (Lovo/DX; resistant subline Lovo/DX): no cross resistance; IC50 [2]: 0.006 mg/L (≈ 0.0157 µM); T/C% (range) (P388 Murine Leukemia [3]; 18 mg/kg/day iv days 1,4,7): 172% and 156%; LTS (P388 Murine Leukemia [3]; 18 mg/kg/day iv days 1,4,7): 0/14; T/C% (range) (P388 Murine Leukemia [3]; 27 mg/kg/day iv days 1,4,7): 188% and 167%; LTS (P388 Murine Leukemia [3]; 27 mg/kg/day iv days 1,4,7): 0/17; T/C% (range) (P388 Murine Leukemia [3]; 40 mg/kg/day iv days 1,4,7): 183% and 156%; LTS (P388 Murine Leukemia [3]; 40 mg/kg/day iv days 1,4,7): 0/16; %T/C (L1210 murine leukemia [4]; Dose 50 mg/kg): 151%

**Q.** With `CN(C)CCNc1ccc(NCCN(C)C)c2c1C(=O)c1cccnc1C2=O` [Compound 5a, 6,9-bis{[2-(dimethylamino)ethyl]amino}benzo[g]quinoline-5,10-dione, reference compound] as the compound, how does the IC50 [2] read?
**A.** 0.155 mg/L (≈ 0.406 µM)

**Q.** What about the “%T/C” value (L1210 murine leukemia [4]; Dose 50 mg/kg) of the same compound?
**A.** 129%

**Q.** And the ID50 (murine L 1210 leukemia [5])?
**A.** 0.16 mg/L (≈ 0.419 µM)

**Q.** And the T/C (murine L 1210 leukemia [6])?
**A.** 130

**Q.** With `NCCNc1ccc(NCCN)c2c1C(=O)c1ccncc1C2=O` [Compound 10i.HCl, 6,9-bis{[2-(amino)ethyl]amino}benzo[g]isoquinoline-5,10-dione] as the compound, how does the IC50 [2] read?
**A.** 0.05 mg/L

**Q.** And the “LTS (day 60)” value (P388 Murine Leukemia [7]; 3.1 mg/kg/day ip days 1,5,9)?
**A.** 0/8

**Q.** And the “% T/C (range)” value (P388 Murine Leukemia [7]; 3.1 mg/kg/day ip days 1,5,9)?
**A.** 144%

**Q.** What about the TOX (P388 Murine Leukemia [7]; 3.1 mg/kg/day ip days 1,5,9) of the same compound?
**A.** 0/8

**Q.** What about the “LTS (day 60)” value (P388 Murine Leukemia [7]; 6.25 mg/kg/day ip days 1,5,9) of the same compound?
**A.** 0/8

**Q.** And the “% T/C (range)” value (P388 Murine Leukemia [7]; 6.25 mg/kg/day ip days 1,5,9)?
**A.** 196%

**Q.** What about the TOX (P388 Murine Leukemia [7]; 6.25 mg/kg/day ip days 1,5,9) of the same compound?
**A.** 1/8

**Q.** And the “LTS (day 60)” value (P388 Murine Leukemia [7]; 12.5 mg/kg/day ip days 1,5,9)?
**A.** 0/8

**Q.** What about the “% T/C (range)” value (P388 Murine Leukemia [7]; 12.5 mg/kg/day ip days 1,5,9) of the same compound?
**A.** 239%

**Q.** And the TOX (P388 Murine Leukemia [7]; 12.5 mg/kg/day ip days 1,5,9)?
**A.** 0/8

**Q.** And the “LTS (day 60)” value (P388 Murine Leukemia [7]; 25 mg/kg/day ip days 1,5,9)?
**A.** 2/8

**Q.** What about the “% T/C (range)” value (P388 Murine Leukemia [7]; 25 mg/kg/day ip days 1,5,9) of the same compound?
**A.** 367%

**Q.** And the TOX (P388 Murine Leukemia [7]; 25 mg/kg/day ip days 1,5,9)?
**A.** 0/8

**Q.** What about the “%T/C” value (L1210 murine leukemia [4]; Dose 12.5 mg/kg) of the same compound?
**A.** 265%

**Q.** What about the LTS (L1210 murine leukemia [4]; Dose 12.5 mg/kg) of the same compound?
**A.** 4/6

**Q.** And the “%T/C” value (L1210 murine leukemia [4]; Dose 25 mg/kg)?
**A.** 265%

**Q.** What about the LTS (L1210 murine leukemia [4]; Dose 25 mg/kg) of the same compound?
**A.** 5/6

**Q.** What about the “%T/C” value (L1210 murine leukemia [8]; 6.25 mg/kg/day ip days 1,5,9) of the same compound?
**A.** 156%

**Q.** And the TOX (L1210 murine leukemia [8]; 6.25 mg/kg/day ip days 1,5,9)?
**A.** 0/8

**Q.** What about the LTS (L1210 murine leukemia [8]; 6.25 mg/kg/day ip days 1,5,9) of the same compound?
**A.** 0/8

**Q.** What about the “%T/C” value (L1210 murine leukemia [8]; 12.5 mg/kg/day ip days 1,5,9) of the same compound?
**A.** 175%

**Q.** And the TOX (L1210 murine leukemia [8]; 12.5 mg/kg/day ip days 1,5,9)?
**A.** 0/8

**Q.** What about the LTS (L1210 murine leukemia [8]; 12.5 mg/kg/day ip days 1,5,9) of the same compound?
**A.** 1/8

**Q.** And the “%T/C” value (L1210 murine leukemia [8]; 25 mg/kg/day ip days 1,5,9, value calculated on dead mice)?
**A.** 250* %

**Q.** What about the TOX (L1210 murine leukemia [8]; 25 mg/kg/day ip days 1,5,9) of the same compound?
**A.** 1/7

**Q.** What about the LTS (L1210 murine leukemia [8]; 25 mg/kg/day ip days 1,5,9) of the same compound?
**A.** 4/7
